Assay [1] deals with β-2-microglobulin (β2m). The settings on record: read-out: Kd for Cu(II) bound to β2m, cited from earlier work.
For assay [2], the target named is Cu(II)-β2m (β-2-microglobulin) (Homo sapiens, UniProt P61769). Kind of assay: CL-MS ligand titration of Cu. It is filed as binding. The settings on record: read-out: Cu(II)-β2m and EGCG Kd; DEPC (120 μM) labeling of the N-terminal amine; 30 μM β2m, 60 μM Cu(II); triplicate.
In assay [3] the target is β-2-microglobulin (β2m). The settings on record: read-out: EGCG-β2m Kd; from size exclusion chromatography data; cited from earlier work. A general note: SEC sorts molecules by how far they enter the pores of the column.

Where two headings read alike, the source gives them in different places.

Drawing on publication PMC7332385 (Journal of the American Society for Mass Spectrometry, 2020), this text covers Kd for two compounds.

Chain of Cu(II)-β2m (β-2-microglobulin) (P61769 21-119): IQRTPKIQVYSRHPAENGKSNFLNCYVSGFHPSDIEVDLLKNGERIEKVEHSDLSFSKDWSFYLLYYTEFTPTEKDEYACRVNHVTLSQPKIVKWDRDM

As to `O=S(=O)([O-])[O-].[Cu+2]` [Cu(II), copper sulfate], the Kd (usually the constant that tells how readily two partners part at equilibrium) at β-2-microglobulin (β2m) [1] (in the presence of EGCG) is 49 µM; on β-2-microglobulin (β2m) [1] (without EGCG), 3 µM.
`O=C(O[C@@H]1Cc2c(O)cc(O)cc2O[C@@H]1c1cc(O)c(O)c(O)c1)c1cc(O)c(O)c(O)c1` [EGCG, epigallocatechin gallate]: the dissociation constant Kd in assay [2] was 12 ± 5 µM; on β-2-microglobulin (β2m) [3] it was 6 µM.
